US20140370080A1, “HISTONE DEACETYLASE (HDAC) INHIBITORS FOR TREATMENT OF POST-SURGICAL ADHESIONS” (TRUSTEES OF BOSTON UNIVERSITY, priority 2011, published 2014)

Legend:
adhesion formation = experiment: Ischemic button model of intraabdominal adhesion formation, adhesion scoring on postoperative day 7; format: in vivo, Male Wistar rats; settings: for % Reduction (of adhesion formation vs control) / Mean adhesion formation (percentage of ischemic buttons with attached adhesions): rats, single intra-operative intraperitoneal dose (SAHA 50 mg/kg, MS-275 10 mg/kg); for % Reduction (of adhesion formation vs control): postoperative day 7; for Mean adhesion formation (percentage of ischemic buttons with attached adhesions): scored postoperative day 7, N=6; for treatment of surgical adhesions (result in words): single intra-operative dose, FIG. 4
Method: (§1) The surgical procedure described in Chu et al. (Surgery, 2011, 149(6): 801-812), content of which is herein incorporated by reference in its entirety, was used to test the HDAC inhibitors discussed herein. […] Adhesions were induced on the day of operation using our previously described ischemic button model. Animals were killed on postoperative day 7 for adhesion scoring. The effect of the HDAC inhibitors on intestinal wound healing was measured using colonic anastomotic burst pressures.
Male Wistar rats (range, 200-225 g; Charles River Laboratories, Wilmington, Mass.) warehoused at constant room temperature and under 12-hour light/12-hour dark cycles and allowed access to food and water ad libitum. The Institutional Animal Care and Use Committee at the Boston University School of Medicine approved this study, and all procedures described were performed in accordance with recommendations outlined in the Guide for the Care and Use of Laboratory Animals: Eighth Edition (NRC 2011) published by the National Academies of Science.
Intraperitoneal ischemic buttons were created as described in Reed et al. (J. Surgical Res., 2002, 108:165-172), content of which is herein incorporated by reference in its entirety. In brief, after a midline laparotomy, 6 ischemic buttons (3 on each side) were created by ligating 5 mm of parietal peritoneum with 4-0 silk suture. Adhesion formation was quantified in a blinded fashion on postoperative day 7 by scoring the percentage of buttons with attached fibrinous adhesions in each rat. For example, an animal that had adhesions attached to 4 of its 6 ischemic buttons received a score of 66%.

[1] = test system: anastomotic wound healing; experiment: Colonic anastomotic burst pressure (intestinal wound healing); format: in vivo, Male Wistar rats; settings: 50 mg/kg intraperitoneally, single intra-op dose, at 7 days, FIG. 3B
Method: as §1
In the final experiment, the inventors tested the effects of intraperitoneal HDAC inhibitors on anastomotic wound healing. Male Wistar rats were randomized to operative controls (OP Control) or operative treatment with HDAC inhibitor as noted in the figure. […] In brief, after laparotomy and division of the distal colon, an end-to-end colonic anastomosis was created using a single running layer of 7-0 polypropylene suture. Animals were killed 7 days postoperatively and, after removing a 4-cm segment containing the anastomosis, the segment underwent measurements of burst pressure as described in Aarons et al. (Annals of Surgery, 2007, 245(2): 176-184), content of which is incorporated herein by reference in its entirety.

anastomotic wound healing (burst pressure) [1] | Structure (SMILES) | % Reduction (of adhesion formation vs control) (adhesion formation) | Mean adhesion formation (percentage of ischemic buttons with attached adhesions) (adhesion formation) | treatment of surgical adhesions (result in words) (adhesion formation) | adhesion formation (adhesion formation; 25 mg/kg, three doses (pre-op, intra-op and pre-op), FIG. 2A) | adhesion formation (adhesion formation; 50 mg/kg intraperitoneally, 3 doses (24 hr pre-op, intra-op, 24 hrs post-op), at 7 days, FIG. 1B) | adhesion formation (adhesion formation; 50 mg/kg intraperitoneally, single intra-op dose, at 7 days, FIG. 2A) | adhesion formation (adhesion formation; 100 mg/kg intraperitoneally, 3 doses (24 hr pre-op, intra-op, 24 hrs post-op), at 7 days, FIG. 1A) | adhesion formation (adhesion formation; 200 mg/kg intraperitoneally, 3 doses (24 hr pre-op, intra-op, 24 hrs post-op), FIG. 1A)
– | Nc1ccccc1NC(=O)c1ccc(CNC(=O)OCc2cccnc2)cc1 [MS-275] | 45.16% | 47.2222% | effective | – | – | – | – | –
– | O=C(CCCCCCC(=O)Nc1ccccc1)NO [SAHA, suberoylanlide hydroxamic acid] | 48.39% | 44.4444% | effective | – | – | – | – | –
did not affect | CCCC(CCC)C(=O)O [valproic acid] | – | – | – | effective | significantly reduced | significantly reduced | significantly reduced | effective
